Measurements taken from patent US20090209536A1, “AMINOQUINAZOLINE CANNABINOID RECEPTOR MODULATORS FOR TREATMENT OF DISEASE” (KALYPSYS, INC., priority 2007, published 2009).

Tests used:
[1] = target: T1, human cannabinoid receptor type 2 (Homo sapiens, UniProt P34972); assay: Human CB2 Radioligand Binding Assay; conditions: competition with [3H] CP-55,940; membranes from stably transfected CHO CB2 cells; read-out: CB2 Ligand Binding Asssay EC50
T1 construct: expressed in transfected cells; membrane preparation
T1 sequence (P34972 whole entry): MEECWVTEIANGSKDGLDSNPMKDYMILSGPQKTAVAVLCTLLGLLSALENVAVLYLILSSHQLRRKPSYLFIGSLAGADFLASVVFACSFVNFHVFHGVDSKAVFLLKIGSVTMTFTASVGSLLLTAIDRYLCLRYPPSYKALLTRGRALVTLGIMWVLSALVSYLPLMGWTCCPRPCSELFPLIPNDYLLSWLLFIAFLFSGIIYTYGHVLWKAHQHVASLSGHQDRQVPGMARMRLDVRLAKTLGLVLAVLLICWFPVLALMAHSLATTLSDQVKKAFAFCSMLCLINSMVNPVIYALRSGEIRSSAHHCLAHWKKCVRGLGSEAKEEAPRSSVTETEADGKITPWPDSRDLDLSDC
Procedure: 1. Human CB2 Radioligand Binding Assay
This receptor binding filtration assay measures the receptor-ligand interactions of compounds by measuring ability to compete with a radiolabeled control ligand. Reactions were performed in 96 deep-well plate (Costar 3961) with a final volume of 600 ul. Compounds were added to each well either in single point (10 uM final) or dose-response. Compounds were delivered in DMSO or further diluted in incubation buffer to a final assay DMSO concentration of 1%. Incubation buffer (50 mM Tris-HCl pH 7.4, 2.5 mM EGTA, 5 mM MgCl2, 5.0 mg/ml fatty acid free BSA) was added to each well. Following buffer addition, [^3H] CP-55,940 was added. Tritiated CP-55,940 (Perkin Elmer) was used at the Kd determined from prior saturation binding experiments conducted on each lot of membranes. Membrane preparations from stably transfected CHO CB2 cells were added and the reaction was incubated for 90 minutes at 30° C. Unifilter GF/C filtration plates (Perkin Elmer) were pre-wet with 0.05% polyethylenimine. Samples were transferred to Unifilter plates and separation of unbound radioligand was achieved using a vacuum manifold (Millipore). Following thorough washing with 5 ml/well ice-cold wash buffer (50 mM Tris-HCl pH 7.4, 2.5 mM EGTA, 5 mM MgCl2, 0.5 mg/ml fatty acid free BSA), filterplates were dried completely. Betaplate Scint Scintillation cocktail (25 ul, Perkin Elmer) was applied and plates were read using Microbeta Trilux (Wallac). Data analysis was performed in Spotfire. Activity of the positive control (100 nM CP-55,940) was set as 100% efficacy.
Stable recombinant Human CB2-CHO cell membranes were prepared as follows: Chinese Hamster Ovarian (CHO) cells stably expressing human cannabinoid receptor type 2 were grown to 90% confluence in 15×100 mm culture dishes under puromycin selection (5 ug/ml) Cells were harvested from culture flasks using a cell scraper, were washed once with cold phosphate-buffered saline (calcium and magnesium free) and pelleted by centrifugation at 400 g for 5 min at 4° C. Cell pellet was washed once with cold phosphate-buffered saline and centrifuged again at 400×g for 5 min at 4° C. The pellet was suspended in ice-cold lysis buffer (10 mM Tris-HCl, 0.1 mM EDTA, containing […], pH 7.5) and homogenized in a chilled 7 ml glass dounce homogenizer using 50 strokes. The homogenate was centrifuged at 400 g for 15 min at 4° C. The cloudy supernatant was collected and centrifuged at 41000 g for 30 min at 4° C. The resulting pellet was washed with ice-cold sucrose-free lysis buffer and centrifuged again at 41000 g for 30 min at 4° C. The membrane pellet was suspended in sucrose-free storage buffer (10 mm Tris-HCl, 0.1 mM EDTA, pH 7.5) to a concentration of 2-3 mg protein/ml. Aliquots were flash frozen in liquid nitrogen and stored at −80° C. Concentration was determined using Dc protein assay kit (Bio-Rad).

[2] = target: T2, human cannabinoid receptor type 1 (Homo sapiens, UniProt P21554); assay: Human CB1 Radioligand Binding Assay (basis of selectivity, CB2 vs. CB1); conditions: CB1: HEK 293 EBNA cells expressing human CB1; CB2: CHO CB2 membranes
T2 construct: purchased Perkin Elmer RBHCB1M; host or cells: HEK 293 EBNA cells
T2 sequence (P21554 whole entry): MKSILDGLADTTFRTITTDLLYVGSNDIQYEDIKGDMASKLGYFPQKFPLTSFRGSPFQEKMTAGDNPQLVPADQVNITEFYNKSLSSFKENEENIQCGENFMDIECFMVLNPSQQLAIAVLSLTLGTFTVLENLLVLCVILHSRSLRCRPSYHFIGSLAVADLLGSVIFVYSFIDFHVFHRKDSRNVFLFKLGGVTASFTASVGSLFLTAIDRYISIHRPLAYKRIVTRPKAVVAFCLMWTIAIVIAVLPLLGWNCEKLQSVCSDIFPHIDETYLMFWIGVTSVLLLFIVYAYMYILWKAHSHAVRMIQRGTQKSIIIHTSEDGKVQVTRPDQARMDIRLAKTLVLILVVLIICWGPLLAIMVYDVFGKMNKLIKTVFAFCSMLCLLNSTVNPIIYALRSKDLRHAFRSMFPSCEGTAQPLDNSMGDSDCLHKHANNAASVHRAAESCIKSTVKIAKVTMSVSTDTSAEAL
Procedure: 2. Human CB1 Radioligand Binding Assay
The incubation buffer was composed of 50 mM Tris-HCl pH 7.4, 2.5 mM EDTA, 5 mM MgCl2, 5.0 mg/ml fatty acid free BSA and the wash buffer was composed of 50 mM Tris-HCl pH 7.4, 2.5 mM EDTA, 5 mM MgCl2, 0.5 mg/ml fatty acid free BSA.

SMILES	EC50 [1] [nM]	Selectivity, CB2 vs. CB1 [2]
Cc1cccc2c(N3CCCC3)nc(CNS(=O)(=O)c3cccc4ccccc34)nc12 [Example 2, N-((8-Methyl-4-(pyrrolidin-1-yl)quinazolin-2-yl)methyl)naphthalene-1-sulfonamide]	< 1000	+ (+ indicates > 10−fold)
O=S(=O)(NCc1nc(N2CCCC2)c2ccccc2n1)c1ccccc1 [Example 3, N-((4-(Pyrrolidin-1-yl)quinazolin-2-yl)methyl)benzenesulfonamide]	< 1000	+ (+ indicates > 10−fold)
O=S(=O)(NCc1nc(N2CCCC2)c2ccccc2n1)c1ccc(F)cc1F [Example 4, 2,4-Difluoro-N-((4-(pyrrolidin-1-yl)quinazolin-2-yl)methyl)benzenesulfonamide]	< 1000	− (− indicates ≦ 10−fold)
Fc1ccc(-c2nc(N3CCCC3)c3ccccc3n2)cc1F [Example 14, 2-(3,4-Difluorophenyl)-4-(pyrrolidin-1-yl)quinazoline]	> 1000	–
CN(Cc1ccccc1)c1nc(C2CCCCC2)nc2ccccc12 [Example 39, N-Benzyl-2-cyclohexyl-N-methylquinazolin-4-amine]	< 1000	–
c1ccc2c(N3CCCC3)nc(C3CCCC3)nc2c1 [Example 135, 2-Cyclopentyl-4-pyrrolidin-1-ylquinazoline]	> 1000	–
CN1CCN(c2nc(-c3ccccc3Cl)nc3ccc(Br)cc23)CC1 [Example 183, 6-Bromo-2-(2-chlorophenyl)-4-(4-methylpiperazin-1-yl)quinazoline]	< 1000	–
CCOC(=O)N1CCN(c2nc(-c3ccc(Cl)cc3)nc3ccc(Cl)cc23)CC1 [Example 210, Ethyl 4-(6-chloro-2-(4-chlorophenyl)quinazolin-4-yl)piperazine-1-carboxylate]	> 1000	–
COC(CNc1nc(-c2ccccc2Cl)nc2ccccc12)OC [Example 230, 2-(2-Chlorophenyl)-N-(2,2-dimethoxyethyl)quinazolin-4-amine]	> 1000	–
O=S(=O)(NCc1nc(N2CCOCC2)c2ccccc2n1)c1ccccc1Br [Example 292, 2-Bromo-N-((4-morpholinoquinazolin-2-yl)methyl)benzenesulfonamide]	< 1000	–
O=S(=O)(NCc1nc(N2CCOCC2)c2ccccc2n1)c1ccc(Cl)cc1 [Example 293, 4-Chloro-N-((4-morpholinoquinazolin-2-yl)methyl)benzenesulfonamide]	> 1000	–
Cc1c(Cl)cccc1S(=O)(=O)NCc1nc(N2CCOCC2)c2ccccc2n1 [Example 295, 3-Chloro-2-methyl-N-((4-morpholinoquinazolin-2-yl)methyl)benzenesulfonamide]	> 1000	–

Now from value to molecule:

EC50 [1] [nM]	Selectivity, CB2 vs. CB1 [2]	SMILES
< 1000	+ (+ indicates > 10−fold)	O=S(=O)(NCc1nc(N2CCCC2)c2ccccc2n1)c1cccc2ccccc12 [Example 1, N-((4-(Pyrrolidin-1-yl)quinazolin-2-yl)methyl)naphthalene-1-sulfonamide]
< 1000	–	CC(C)(C)c1ccc(-c2nc(NC3CCCCC3)c3ccccc3n2)cc1 [Example 129, 2-(4-tert-Butylphenyl)quinazolin-4-yl cyclohexylamine]
> 1000	–	CC(C)(C)c1ccc(Nc2nc(-c3ccc(OC(F)(F)F)cc3)nc3ccccc23)cc1 [Example 143, (4-tert-Butylphenyl)-[2-(4-trifluoromethoxyphenyl)-quinazolin-4-yl]amine]
> 1000	–	CCOC(=O)N1CCN(c2nc(-c3ccccc3Cl)nc3cc(C(=O)N(CC)CC)ccc23)CC1 [Example 319, Ethyl 4-(2-(2-chlorophenyl)-7-(diethylcarbamoyl)quinazolin-4-yl)piperazine-1-carboxylate]
> 1000	–	COC(=O)c1ccc2nc(-c3ccccc3Cl)nc(Nc3ccccc3C)c2c1 [Example 329, Methyl 2-(2-chlorophenyl)-4-(o-tolylamino)quinazoline-6-carboxylate]
